Tests used:
[1] = Drug elution from polymer into PBS at 37° C.; format: physicochemical; conditions: within the first three days; polymer prepared with Nolvasan, 2% chlorhexidine dose (50 mg); PBS 37° C.
Method: A Thermo Scientific GENESYS 10S UV-Vis spectrophotometer was used to quantify the release of various drugs from several polymers. First, the reference drug or drug solution was dissolved in an appropriate solvent. Typically, phosphate buffered saline (PBS), ethanol or dimethylsulfoxide (DMSO) were used as the solvent. Next, the optimal absorption peak for identifying and quantifying the drug was determined by performing a scan of the drug solution between 200 and 1000 nm. With the absorption peak selected, a reference curve was established by measuring the peak absorbance for various concentrations of the drug. […]
Elution samples were collected daily by decanting the PBS solution from the polymer. The volume of sample collected was recorded. […] The elution sample was analyzed by first diluting the sample in the appropriate solvent using analytical pipettes such that the measured absorbance was in the range determined by the reference curve. The dilution factor was recorded. The drug concentration was calculated from the measured absorbance via the reference curve and the dilution factor. The drug amount was calculated by multiplying the drug concentration with the sample volume. The percent elution for that day was calculated by dividing the drug amount by the total amount of drug administered. […]

[2] = Hydrogel surface spread test; format: physicochemical; design: key: 1: no spreading, tight drops that stay in place; 2: mild spreading, drops drip slowly down; 3: severe spreading, drops completely wet surface; conditions: drop from 22 gauge needle on 97.5% water hydrogel surface, incline about 30°
Method: To model the performance of the polymer solutions on a hydrophilic surface the extent of spreading and dripping of droplets on a high water content biocompatible hydrogel polymer matrix surface at an incline of about 30° was recorded. […] The solution was stirred with a spatula for 10 to 20 seconds and allowed to gel, which typically took 5 to 10 minutes. The water content of the resulting polymer was 97.5%.
The test was performed by first preparing the polymer solution in the usual fashion. After thorough mixing, the polymer solution was dispensed dropwise through a 22 gauge needle onto the biocompatible biocompatible hydrogel polymer matrix surface. The results are shown in Table 9B and were divided into three general categories: 1) no spreading, tight drops that stay in place; 2) mild spreading, drops drip slowly down; 3) severe spreading, drops completely wet surface. Water is in category 3.

chlorhexidine released from polymer [1] | hydrogel surface spread test category [2] | Compound
Almost half | – | [H]/N=C(\N/C(=N/[H])NCCCCCCNC(=N)NC(=N)Nc1ccc(Cl)cc1)Nc1ccc(Cl)cc1 [chlorhexidine]
– | 3 | Water
